Assay results published in the kinase profiling compilation of Christmann-Franck et al. (2016).
Values joined by “and” are separate entries in the source; they are usually repeats but may differ in a detail not shown here. Equal values may be shown once.

Assays:
PI4KA (human) = PI4KA (human) (UniProt P42356)
PIK3C2B (human) = PIK3C2B (human) (UniProt O00750)
PIK3C2A (human) = PIK3C2A (human) (UniProt O00443)
PI4KB (human) = PI4KB (human) (UniProt Q9UBF8)
PIK3C3 (human) = PIK3C3 (human) (UniProt Q8NEB9)
PRKCZ (human) = PRKCZ (human) (UniProt Q05513)
Chain of PRKCZ (human) (Q05513 whole entry, looked up): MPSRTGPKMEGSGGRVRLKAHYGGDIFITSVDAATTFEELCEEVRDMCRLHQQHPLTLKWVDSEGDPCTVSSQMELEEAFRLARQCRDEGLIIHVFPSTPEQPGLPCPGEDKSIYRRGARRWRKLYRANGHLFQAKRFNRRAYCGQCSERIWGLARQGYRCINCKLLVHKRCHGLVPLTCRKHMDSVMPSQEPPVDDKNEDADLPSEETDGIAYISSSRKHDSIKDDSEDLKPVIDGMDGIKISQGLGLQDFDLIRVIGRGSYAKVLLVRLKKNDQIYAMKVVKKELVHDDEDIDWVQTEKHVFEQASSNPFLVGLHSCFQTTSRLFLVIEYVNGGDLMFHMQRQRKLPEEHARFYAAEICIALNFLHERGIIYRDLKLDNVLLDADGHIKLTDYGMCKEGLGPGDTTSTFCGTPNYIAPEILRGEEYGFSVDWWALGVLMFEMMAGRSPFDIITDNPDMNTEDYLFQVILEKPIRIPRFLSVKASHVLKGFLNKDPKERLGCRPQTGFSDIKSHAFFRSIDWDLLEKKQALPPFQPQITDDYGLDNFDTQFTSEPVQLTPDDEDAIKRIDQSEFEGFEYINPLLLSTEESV

[1] = system: SGK1 (human), O00141 [S422D]
Chain of SGK1 (human), O00141 [S422D] (O00141 whole entry S422D, looked up): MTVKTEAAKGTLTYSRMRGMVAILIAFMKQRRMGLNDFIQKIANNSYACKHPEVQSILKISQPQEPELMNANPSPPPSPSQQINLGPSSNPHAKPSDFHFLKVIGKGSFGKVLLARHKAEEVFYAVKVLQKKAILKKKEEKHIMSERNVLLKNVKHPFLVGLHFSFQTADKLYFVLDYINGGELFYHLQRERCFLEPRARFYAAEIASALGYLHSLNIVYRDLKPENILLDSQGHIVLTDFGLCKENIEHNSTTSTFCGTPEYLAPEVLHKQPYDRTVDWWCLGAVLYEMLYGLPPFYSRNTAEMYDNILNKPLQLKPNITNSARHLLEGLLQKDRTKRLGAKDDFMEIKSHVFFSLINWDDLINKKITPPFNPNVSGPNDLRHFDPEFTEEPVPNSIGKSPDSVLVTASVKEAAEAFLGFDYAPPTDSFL

MKNK1 (human) = MKNK1 (human) (UniProt Q9BUB5)
Chain of MKNK1 (human) (Q9BUB5 whole entry, looked up): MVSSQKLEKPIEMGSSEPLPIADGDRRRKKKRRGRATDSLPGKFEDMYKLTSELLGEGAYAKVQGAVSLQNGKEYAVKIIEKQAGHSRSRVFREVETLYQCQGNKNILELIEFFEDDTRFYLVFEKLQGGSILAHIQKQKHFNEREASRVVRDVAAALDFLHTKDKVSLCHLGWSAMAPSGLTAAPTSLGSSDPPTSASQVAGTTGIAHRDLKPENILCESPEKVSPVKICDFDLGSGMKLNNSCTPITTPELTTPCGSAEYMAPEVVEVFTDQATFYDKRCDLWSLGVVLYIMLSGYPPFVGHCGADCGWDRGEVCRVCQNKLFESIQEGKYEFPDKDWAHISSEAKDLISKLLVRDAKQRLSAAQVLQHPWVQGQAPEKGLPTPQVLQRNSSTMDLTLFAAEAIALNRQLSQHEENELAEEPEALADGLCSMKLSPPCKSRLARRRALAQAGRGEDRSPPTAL

MKNK2 (human) = MKNK2 (human) (UniProt Q9HBH9)
DYRK3 (human) = DYRK3 (human) (UniProt O43781)
MELK (human) = MELK (human) (UniProt Q14680)
NEK2 (human) = NEK2 (human) (UniProt P51955)
PDPK1 (human) = PDPK1 (human) (UniProt O15530)
CSK (human) = CSK (human) (UniProt P41240)
RPS6KA5 KD1 KD2 (human) = RPS6KA5 KD1 KD2 (human) (UniProt O75582)
DYRK1A (human) = DYRK1A (human) (UniProt Q13627)
CaMK1 (human) = CaMK1 (human) (UniProt Q14012)
PAK7 (human) = PAK7 (human) (UniProt Q9P286)
INSRR (human) = INSRR (human) (UniProt P14616)
Chain of INSRR (human) (P14616 whole entry, looked up): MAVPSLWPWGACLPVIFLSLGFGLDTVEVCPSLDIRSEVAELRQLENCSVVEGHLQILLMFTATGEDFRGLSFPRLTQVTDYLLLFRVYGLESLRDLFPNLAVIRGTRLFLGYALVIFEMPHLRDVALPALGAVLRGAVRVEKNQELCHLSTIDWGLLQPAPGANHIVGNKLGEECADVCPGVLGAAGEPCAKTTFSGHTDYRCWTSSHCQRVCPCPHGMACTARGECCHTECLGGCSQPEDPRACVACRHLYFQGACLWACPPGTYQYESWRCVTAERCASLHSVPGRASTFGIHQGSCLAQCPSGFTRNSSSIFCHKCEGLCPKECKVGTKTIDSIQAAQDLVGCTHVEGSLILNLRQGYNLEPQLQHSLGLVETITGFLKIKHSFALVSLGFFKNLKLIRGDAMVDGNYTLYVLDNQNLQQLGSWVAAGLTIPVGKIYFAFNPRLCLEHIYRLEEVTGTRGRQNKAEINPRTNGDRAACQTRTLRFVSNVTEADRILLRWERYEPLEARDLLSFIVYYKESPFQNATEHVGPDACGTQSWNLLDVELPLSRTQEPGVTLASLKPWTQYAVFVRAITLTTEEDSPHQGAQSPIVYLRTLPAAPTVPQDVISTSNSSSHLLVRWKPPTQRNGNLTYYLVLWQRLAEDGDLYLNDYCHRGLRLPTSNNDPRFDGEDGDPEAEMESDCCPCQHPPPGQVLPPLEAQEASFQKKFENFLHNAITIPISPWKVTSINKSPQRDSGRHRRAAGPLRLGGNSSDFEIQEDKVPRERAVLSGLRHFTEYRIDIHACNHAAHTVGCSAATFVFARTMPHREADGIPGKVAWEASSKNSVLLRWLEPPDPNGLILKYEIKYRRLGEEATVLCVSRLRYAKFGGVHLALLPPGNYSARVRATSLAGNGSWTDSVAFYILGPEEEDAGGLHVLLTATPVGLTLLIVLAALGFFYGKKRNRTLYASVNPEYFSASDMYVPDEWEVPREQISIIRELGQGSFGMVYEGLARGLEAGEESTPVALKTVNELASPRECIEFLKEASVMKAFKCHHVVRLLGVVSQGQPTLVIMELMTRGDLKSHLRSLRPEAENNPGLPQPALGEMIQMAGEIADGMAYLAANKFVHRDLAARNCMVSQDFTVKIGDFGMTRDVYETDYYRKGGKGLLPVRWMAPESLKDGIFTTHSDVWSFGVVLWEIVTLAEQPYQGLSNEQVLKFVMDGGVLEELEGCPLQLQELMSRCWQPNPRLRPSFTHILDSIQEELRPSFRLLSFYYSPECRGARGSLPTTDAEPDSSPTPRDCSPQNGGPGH

PAK6 (human) = PAK6 (human) (UniProt Q9NQU5)
CSNK1D (human) = CSNK1D (human) (UniProt P48730)
Chain of CSNK1D (human) (P48730 whole entry, looked up): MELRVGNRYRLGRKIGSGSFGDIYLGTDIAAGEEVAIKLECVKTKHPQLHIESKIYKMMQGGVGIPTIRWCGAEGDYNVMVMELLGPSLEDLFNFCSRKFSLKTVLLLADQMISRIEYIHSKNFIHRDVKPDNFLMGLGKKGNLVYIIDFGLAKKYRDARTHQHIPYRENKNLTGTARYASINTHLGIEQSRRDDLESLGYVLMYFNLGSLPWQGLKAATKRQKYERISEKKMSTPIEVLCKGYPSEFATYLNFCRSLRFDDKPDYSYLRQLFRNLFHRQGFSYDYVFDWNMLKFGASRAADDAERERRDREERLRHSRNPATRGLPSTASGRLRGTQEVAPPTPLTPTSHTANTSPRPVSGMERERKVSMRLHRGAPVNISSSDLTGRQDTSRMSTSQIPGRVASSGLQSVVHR

DYRK2 (human) = DYRK2 (human) (UniProt Q92630)
PKN2 (human) = PKN2 (human) (UniProt Q16513)
Chain of PKN2 (human) (Q16513 whole entry, looked up): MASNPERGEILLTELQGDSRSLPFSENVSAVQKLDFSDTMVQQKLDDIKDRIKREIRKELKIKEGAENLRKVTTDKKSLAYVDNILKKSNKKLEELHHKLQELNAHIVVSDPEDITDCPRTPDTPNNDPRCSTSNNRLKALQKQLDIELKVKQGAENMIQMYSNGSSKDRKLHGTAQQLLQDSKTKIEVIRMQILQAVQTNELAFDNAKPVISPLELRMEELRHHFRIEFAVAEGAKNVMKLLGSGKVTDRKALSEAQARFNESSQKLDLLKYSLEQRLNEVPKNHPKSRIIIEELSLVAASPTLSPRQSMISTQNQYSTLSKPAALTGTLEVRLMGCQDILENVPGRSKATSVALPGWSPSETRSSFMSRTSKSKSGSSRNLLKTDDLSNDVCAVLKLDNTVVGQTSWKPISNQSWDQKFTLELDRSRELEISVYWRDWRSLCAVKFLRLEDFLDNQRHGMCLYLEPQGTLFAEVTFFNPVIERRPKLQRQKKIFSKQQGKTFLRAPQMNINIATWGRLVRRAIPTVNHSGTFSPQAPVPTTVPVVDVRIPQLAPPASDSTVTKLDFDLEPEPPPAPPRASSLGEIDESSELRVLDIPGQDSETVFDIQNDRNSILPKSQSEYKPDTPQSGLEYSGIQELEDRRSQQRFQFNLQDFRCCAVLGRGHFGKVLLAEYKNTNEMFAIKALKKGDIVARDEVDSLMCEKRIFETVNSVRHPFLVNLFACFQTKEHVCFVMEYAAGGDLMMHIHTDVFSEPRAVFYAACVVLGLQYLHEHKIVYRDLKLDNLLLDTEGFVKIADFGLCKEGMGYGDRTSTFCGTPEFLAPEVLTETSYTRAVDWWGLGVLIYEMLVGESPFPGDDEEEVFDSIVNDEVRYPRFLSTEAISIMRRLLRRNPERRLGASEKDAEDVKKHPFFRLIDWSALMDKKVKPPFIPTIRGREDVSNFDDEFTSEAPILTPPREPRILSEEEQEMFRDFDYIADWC

FGFR1 (human) = FGFR1 (human) (UniProt P11362)
HIPK2 (human) = HIPK2 (human) (UniProt Q9H2X6)
PHKG1 (human) = PHKG1 (human) (UniProt Q16816)
Chain of PHKG1 (human) (Q16816 whole entry, looked up): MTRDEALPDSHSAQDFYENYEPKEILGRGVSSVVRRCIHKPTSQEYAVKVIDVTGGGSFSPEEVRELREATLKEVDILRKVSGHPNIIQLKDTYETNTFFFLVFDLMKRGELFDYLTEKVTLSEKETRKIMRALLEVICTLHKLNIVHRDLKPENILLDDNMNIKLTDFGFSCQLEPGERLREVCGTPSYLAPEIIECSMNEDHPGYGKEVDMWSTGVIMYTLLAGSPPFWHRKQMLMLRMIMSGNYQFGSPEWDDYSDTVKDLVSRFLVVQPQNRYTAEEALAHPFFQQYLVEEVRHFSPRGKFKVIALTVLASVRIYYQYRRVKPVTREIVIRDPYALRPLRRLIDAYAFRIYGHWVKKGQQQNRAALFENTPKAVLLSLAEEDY

RPS6KA3 KD1 KD2 (human) = RPS6KA3 KD1 KD2 (human) (UniProt P51812)
BRSK2 (human) = BRSK2 (human) (UniProt Q8IWQ3)
PRKAA1 or PRKAA2 (rat) = settings: accession and sequence are those of the human protein
MARK3 (human) = MARK3 (human) (UniProt P27448)
MAPK9 (human) = MAPK9 (human) (UniProt P45984)
PIM1 (human) = PIM1 (human) (UniProt P11309)
Chain of PIM1 (human) (P11309 whole entry, looked up): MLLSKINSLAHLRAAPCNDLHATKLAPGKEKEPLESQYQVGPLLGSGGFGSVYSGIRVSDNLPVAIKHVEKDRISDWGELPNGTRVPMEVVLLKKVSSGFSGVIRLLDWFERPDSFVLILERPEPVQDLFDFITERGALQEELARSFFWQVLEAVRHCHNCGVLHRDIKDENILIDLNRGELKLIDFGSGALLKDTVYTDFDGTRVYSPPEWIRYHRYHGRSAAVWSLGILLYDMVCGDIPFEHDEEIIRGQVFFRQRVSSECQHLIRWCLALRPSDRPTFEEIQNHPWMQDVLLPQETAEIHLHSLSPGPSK

STK3 (human) = STK3 (human) (UniProt Q13188)
CHEK2 (human) = CHEK2 (human) (UniProt O96017)

COc1ccc(-c2ccc3c(N4CCOCC4)nc(N4C[C@@H](C)O[C@@H](C)C4)nc3n2)cc1CO
IC50 (PI4KA (human)): > 10 µM | IC50 (PIK3C2B (human)): > 10 µM | IC50 (PIK3C2A (human)): > 10 µM | IC50 (PI4KB (human)): > 10 µM | IC50 (PIK3C3 (human)): > 10 µM | per cent of control (PRKCZ (human); compound 1.0 µM): 87% | per cent of control (PRKCZ (human); compound 10.0 µM): 84% | per cent of control ([1]; compound 1.0 µM): 76% | per cent of control ([1]; compound 10.0 µM): 64% | per cent of control (MKNK1 (human); compound 1.0 µM): 111% | per cent of control (MKNK1 (human); compound 10.0 µM): 75% | per cent of control (MKNK2 (human); compound 1.0 µM): 87% | per cent of control (MKNK2 (human); compound 10.0 µM): 92% | per cent of control (DYRK3 (human); compound 1.0 µM): 88% | per cent of control (DYRK3 (human); compound 10.0 µM): 84% | per cent of control (MELK (human); compound 1.0 µM): 91% | per cent of control (MELK (human); compound 10.0 µM): 72% | per cent of control (NEK2 (human); compound 1.0 µM): 92% | per cent of control (NEK2 (human); compound 10.0 µM): 86% | per cent of control (PDPK1 (human); compound 1.0 µM): 80% and 89% | per cent of control (PDPK1 (human); compound 10.0 µM): 91% and 101% | per cent of control (CSK (human); compound 1.0 µM): 90% | per cent of control (CSK (human); compound 10.0 µM): 99% | per cent of control (RPS6KA5 KD1 KD2 (human); compound 1.0 µM): 101% | per cent of control (RPS6KA5 KD1 KD2 (human); compound 10.0 µM): 117% | per cent of control (DYRK1A (human); compound 1.0 µM): 94% | per cent of control (DYRK1A (human); compound 10.0 µM): 80% | per cent of control (CaMK1 (human); compound 1.0 µM): 96% | per cent of control (CaMK1 (human); compound 10.0 µM): 101% | per cent of control (PAK7 (human); compound 1.0 µM): 101% | per cent of control (PAK7 (human); compound 10.0 µM): 81% | per cent of control (INSRR (human); compound 1.0 µM): 105% | per cent of control (INSRR (human); compound 10.0 µM): 71% | per cent of control (PAK6 (human); compound 1.0 µM): 75% | per cent of control (PAK6 (human); compound 10.0 µM): 100% | per cent of control (CSNK1D (human); compound 1.0 µM): 112% | per cent of control (CSNK1D (human); compound 10.0 µM): 109% | per cent of control (DYRK2 (human); compound 1.0 µM): 92% | per cent of control (DYRK2 (human); compound 10.0 µM): 96% | per cent of control (PKN2 (human); compound 1.0 µM): 95% | per cent of control (PKN2 (human); compound 10.0 µM): 105% | per cent of control (FGFR1 (human); compound 1.0 µM): 102% | per cent of control (FGFR1 (human); compound 10.0 µM): 87% | per cent of control (HIPK2 (human); compound 1.0 µM): 89% | per cent of control (HIPK2 (human); compound 10.0 µM): 89% | per cent of control (PHKG1 (human); compound 1.0 µM): 89% | per cent of control (PHKG1 (human); compound 10.0 µM): 116% | per cent of control (RPS6KA3 KD1 KD2 (human); compound 1.0 µM): 103% | per cent of control (RPS6KA3 KD1 KD2 (human); compound 10.0 µM): 104% | per cent of control (BRSK2 (human); compound 1.0 µM): 90% | per cent of control (BRSK2 (human); compound 10.0 µM): 72% | per cent of control (PRKAA1 or PRKAA2 (rat); compound 1.0 µM): 97% | per cent of control (PRKAA1 or PRKAA2 (rat); compound 10.0 µM): 106% | per cent of control (MARK3 (human); compound 1.0 µM): 93% | per cent of control (MARK3 (human); compound 10.0 µM): 93% | per cent of control (MAPK9 (human); compound 1.0 µM): 101% | per cent of control (MAPK9 (human); compound 10.0 µM): 103% | per cent of control (PIM1 (human); compound 1.0 µM): 89% | per cent of control (PIM1 (human); compound 10.0 µM): 98% | per cent of control (STK3 (human); compound 1.0 µM): 81% | per cent of control (STK3 (human); compound 10.0 µM): 102%

CCC(=O)N1CCN(c2ccc(-n3c(=O)ccc4cnc5ccc(-c6cnc7ccccc7c6)cc5c43)cc2C(F)(F)F)CC1
IC50 (PI4KA (human)): > 10 µM | per cent of control (PRKCZ (human); compound 1.0 µM): 121% | per cent of control (PRKCZ (human); compound 10.0 µM): 106% | per cent of control ([1]; compound 1.0 µM): 79% | per cent of control ([1]; compound 10.0 µM): 60% | per cent of control (MKNK1 (human); compound 1.0 µM): 93% | per cent of control (MKNK1 (human); compound 10.0 µM): 96% | per cent of control (MKNK2 (human); compound 1.0 µM): 112% | per cent of control (MKNK2 (human); compound 10.0 µM): 96% | per cent of control (DYRK3 (human); compound 1.0 µM): 88% | per cent of control (DYRK3 (human); compound 10.0 µM): 52% | per cent of control (MELK (human); compound 1.0 µM): 63% | per cent of control (MELK (human); compound 10.0 µM): 17% | per cent of control (NEK2 (human); compound 1.0 µM): 88% | per cent of control (NEK2 (human); compound 10.0 µM): 99% | per cent of control (PDPK1 (human); compound 1.0 µM): 100% and 117% | per cent of control (PDPK1 (human); compound 10.0 µM): 98% and 101% | per cent of control (CHEK2 (human); compound 1.0 µM): 90% | per cent of control (CHEK2 (human); compound 10.0 µM): 83% | per cent of control (CSK (human); compound 1.0 µM): 101% | per cent of control (CSK (human); compound 10.0 µM): 83% | per cent of control (RPS6KA5 KD1 KD2 (human); compound 1.0 µM): 86% | per cent of control (DYRK1A (human); compound 1.0 µM): 92% | per cent of control (DYRK1A (human); compound 10.0 µM): 75% | per cent of control (CaMK1 (human); compound 1.0 µM): 104% | per cent of control (CaMK1 (human); compound 10.0 µM): 77% | per cent of control (PAK7 (human); compound 10.0 µM): 61% | per cent of control (INSRR (human); compound 10.0 µM): 73% | per cent of control (PAK6 (human); compound 1.0 µM): 110% | per cent of control (PAK6 (human); compound 10.0 µM): 80% | per cent of control (CSNK1D (human); compound 1.0 µM): 93% | per cent of control (CSNK1D (human); compound 10.0 µM): 104% | per cent of control (DYRK2 (human); compound 1.0 µM): 99% | per cent of control (DYRK2 (human); compound 10.0 µM): 99% | per cent of control (PKN2 (human); compound 1.0 µM): 97% | per cent of control (PKN2 (human); compound 10.0 µM): 114% | per cent of control (FGFR1 (human); compound 1.0 µM): 110% | per cent of control (FGFR1 (human); compound 10.0 µM): 79% | per cent of control (HIPK2 (human); compound 1.0 µM): 96% | per cent of control (HIPK2 (human); compound 10.0 µM): 88% | per cent of control (PHKG1 (human); compound 1.0 µM): 110% | per cent of control (PHKG1 (human); compound 10.0 µM): 99% | per cent of control (RPS6KA3 KD1 KD2 (human); compound 1.0 µM): 96% | per cent of control (RPS6KA3 KD1 KD2 (human); compound 10.0 µM): 81% | per cent of control (BRSK2 (human); compound 1.0 µM): 102% | per cent of control (BRSK2 (human); compound 10.0 µM): 104% | per cent of control (PRKAA1 or PRKAA2 (rat); compound 1.0 µM): 78% | per cent of control (PRKAA1 or PRKAA2 (rat); compound 10.0 µM): 93% | per cent of control (MARK3 (human); compound 1.0 µM): 99% | per cent of control (MARK3 (human); compound 10.0 µM): 98% | per cent of control (MAPK9 (human); compound 1.0 µM): 98% | per cent of control (PIM1 (human); compound 1.0 µM): 82% | per cent of control (PIM1 (human); compound 10.0 µM): 24% | per cent of control (STK3 (human); compound 1.0 µM): 97% | per cent of control (STK3 (human); compound 10.0 µM): 79%
